Results: ChEMBL document CHEMBL4414646, “Eutypellacytosporins A-D, Meroterpenoids from the Arctic Fungus Eutypella sp. D-1” (J Nat Prod, 2019)
pIC50: −log10 of the molar value.

Assays:
Assay type in all cases: functional, cell-based
DU-145 = assay: Cytotoxicity against human DU145 cells assessed as reduction in cell viability incubated for 72 hrs by CCK8 assay; conditions: DU-145, 72 h
Huh-7 = assay: Cytotoxicity against human HuH7 cells assessed as reduction in cell viability incubated for 72 hrs by CCK8 assay; conditions: Huh-7, 72 h
PANC-1 = assay: Cytotoxicity against human PANC1 cells assessed as reduction in cell viability incubated for 72 hrs by CCK8 assay; conditions: PANC-1, 72 h
SW1990 = assay: Cytotoxicity against human SW1990 cells assessed as reduction in cell viability incubated for 72 hrs by CCK8 assay; conditions: SW1990, 72 h

## C=C1[C@@H](OC(=O)C(C)(C)[C@H](C)O)C[C@H]2C[C@@H]1[C@]21C[C@@]2(C[C@H](C)C(=O)O2)O[C@@H]1OCC1=C(/C=C/CCCCC)[C@@H](O)[C@@H]2O[C@@]23C[C@H](O)C(C)(C)O[C@@H]13
DU-145
  pIC50: 4.77
Huh-7
  pIC50: 5.08
PANC-1
  pIC50: 5.01
SW1990
  pIC50: 5.14

## CCCCC/C=C/C1=C(CO)[C@@H]2OC(C)(C)[C@@H](O)C[C@@]23O[C@H]3[C@@H]1O
DU-145
  pIC50: < 4.30
Huh-7
  pIC50: < 4.30
PANC-1
  pIC50: < 4.30
SW1990
  pIC50: < 4.30

## C=C1[C@@H](OC(=O)C(C)(C)[C@H](C)O)C[C@H]2C[C@@H]1[C@]21C[C@@]2(C[C@H](C)C(=O)O2)O[C@H]1OCC1=C(/C=C/CCCCC)[C@@H](O)[C@@H]2O[C@@]23C[C@H](O)C(C)(C)O[C@@H]13
DU-145
  pIC50: 4.96
Huh-7
  pIC50: 5.31
PANC-1
  pIC50: 5.10
SW1990
  pIC50: 5.31

## C=C1[C@@H](OC(=O)C(C)(C)[C@H](C)O)C[C@H]2C[C@@H]1[C@]21C[C@]2(C[C@H](C)C(=O)O2)O[C@@H]1OCC1=C(/C=C/CCCCC)[C@@H](O)[C@@H]2O[C@@]23C[C@H](O)C(C)(C)O[C@@H]13
DU-145
  pIC50: 4.87
Huh-7
  pIC50: 4.95
PANC-1
  pIC50: 4.99
SW1990
  pIC50: 5.02

## C=C1[C@@H](OC(=O)C(C)(C)[C@H](C)O)C[C@H]2C[C@@H]1[C@]21C[C@]2(C[C@H](C)C(=O)O2)O[C@H]1OCC1=C(/C=C/CCCCC)[C@@H](O)[C@@H]2O[C@@]23C[C@H](O)C(C)(C)O[C@@H]13
DU-145
  pIC50: 4.87
Huh-7
  pIC50: 5.02
PANC-1
  pIC50: 5.12
SW1990
  pIC50: 5.09
